According to patent US20230295235A1, “COMPOUNDS TARGETING ALPHA4-BETA7 INTEGRIN” (ZEALAND PHARMA A/S, priority 2020, published 2023):

Biological target: T1, α4β7 integrin (MAdCAM-1 binding, α4β7-positive Th memory cells) (Homo sapiens, UniProt P13612+P26010)
T1 construct: endogenous in cells; host or cells: human whole blood
T1 sequence (P13612 34-1032): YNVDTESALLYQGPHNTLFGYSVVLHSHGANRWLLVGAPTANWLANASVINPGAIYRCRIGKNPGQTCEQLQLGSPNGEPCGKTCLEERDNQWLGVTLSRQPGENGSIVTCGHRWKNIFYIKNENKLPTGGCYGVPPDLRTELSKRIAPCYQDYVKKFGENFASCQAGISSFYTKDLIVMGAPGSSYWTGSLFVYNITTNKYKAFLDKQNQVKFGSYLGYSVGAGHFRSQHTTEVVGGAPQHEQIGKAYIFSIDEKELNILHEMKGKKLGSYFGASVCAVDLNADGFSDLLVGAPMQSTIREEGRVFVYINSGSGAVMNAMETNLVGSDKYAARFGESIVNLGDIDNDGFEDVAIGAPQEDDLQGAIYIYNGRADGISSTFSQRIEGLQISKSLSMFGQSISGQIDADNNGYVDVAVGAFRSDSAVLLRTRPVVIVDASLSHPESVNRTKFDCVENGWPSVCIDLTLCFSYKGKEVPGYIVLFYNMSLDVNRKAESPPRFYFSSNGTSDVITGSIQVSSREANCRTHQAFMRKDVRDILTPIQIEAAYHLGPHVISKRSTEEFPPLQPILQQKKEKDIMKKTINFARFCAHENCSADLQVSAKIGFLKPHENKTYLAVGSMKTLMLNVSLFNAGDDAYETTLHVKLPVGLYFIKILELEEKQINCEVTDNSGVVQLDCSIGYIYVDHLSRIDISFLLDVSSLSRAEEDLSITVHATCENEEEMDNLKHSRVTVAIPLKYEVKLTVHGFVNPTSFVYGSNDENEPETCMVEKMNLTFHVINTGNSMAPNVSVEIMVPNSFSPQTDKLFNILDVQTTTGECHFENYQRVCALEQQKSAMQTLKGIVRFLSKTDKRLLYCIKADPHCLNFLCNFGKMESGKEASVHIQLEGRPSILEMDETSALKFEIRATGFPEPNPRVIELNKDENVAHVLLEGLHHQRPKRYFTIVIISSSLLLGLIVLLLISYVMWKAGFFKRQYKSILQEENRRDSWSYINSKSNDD
T1 sequence (P26010 20-798): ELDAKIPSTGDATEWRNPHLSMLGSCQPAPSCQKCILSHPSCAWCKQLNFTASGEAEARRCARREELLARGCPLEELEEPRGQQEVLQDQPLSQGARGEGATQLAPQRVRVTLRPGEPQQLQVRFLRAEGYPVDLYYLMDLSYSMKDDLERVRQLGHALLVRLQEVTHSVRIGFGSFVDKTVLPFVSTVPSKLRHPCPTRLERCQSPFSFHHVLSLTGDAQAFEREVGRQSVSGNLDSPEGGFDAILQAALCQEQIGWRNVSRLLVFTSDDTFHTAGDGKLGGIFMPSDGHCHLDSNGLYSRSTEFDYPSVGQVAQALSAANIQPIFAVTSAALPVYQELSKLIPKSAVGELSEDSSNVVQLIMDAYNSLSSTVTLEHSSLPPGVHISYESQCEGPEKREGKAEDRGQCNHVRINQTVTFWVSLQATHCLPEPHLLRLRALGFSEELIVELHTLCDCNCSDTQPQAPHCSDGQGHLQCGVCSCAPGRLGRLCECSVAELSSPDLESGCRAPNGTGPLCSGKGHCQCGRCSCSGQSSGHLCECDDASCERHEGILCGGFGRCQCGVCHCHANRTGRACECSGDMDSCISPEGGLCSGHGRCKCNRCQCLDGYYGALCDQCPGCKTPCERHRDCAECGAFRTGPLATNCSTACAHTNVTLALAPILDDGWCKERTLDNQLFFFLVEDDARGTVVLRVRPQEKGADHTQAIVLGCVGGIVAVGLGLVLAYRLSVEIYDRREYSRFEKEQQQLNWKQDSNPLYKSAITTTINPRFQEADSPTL
Test: Competition assay: inhibition of biotinylated rhMAdCAM-1-Fc binding to α4β7-positive Th memory cells in whole blood (FACS receptor occupancy)
Format: cell-based
Details: single donor, 4 mM MnCl2, α4β7-positive Th memory cells, read-out: IC50, inhibition of MAdCAM-1 binding to primary cells
Method: The compound of Example 1 was used in competition assay on CD4+ integrin α4+β7-|o memory T cells.
Receptor occupancy in primary cells was determined by measuring the amount of biotinylated human recombinant MAdCAM-1-Fc or human recombinant VCAM-1-Fc bound to selected cell populations using flow cytometry. Human recombinant MAdCAM-1-Fc or human recombinant VCAM-1-Fc (R&D systems) were biotinylated using commercially available reagents and protocol (Pierce).
Whole blood was collected from human donors in sodium heparin tubes. A volume of 100 µL of blood was incubated with the compound of Example 1 and 4 mM MnCl2 for 1 hour at room temperature. Cells were washed twice with 1 mL of 1X Dulbecco’s phosphate buffered saline (DPBS) calcium magnesium free (CMF) (ThermoFisher Scientific) and resuspended in 100 µL of DPBS CMF. […]
Fluorescence-activated cell sorting (FACS) data was acquired by electronic gating on the basis of forward versus side scatter. […] Cell population were determined using the following markers: CD45+, CD3+, CD4+,CD45RO+, CD49d+, integrin β7, biotinylated ligands.
Compound receptor occupancy was defined as the decrease in the number of integrin β7+ or integrin β7-lo cells binding biotinylated rhMAdCAM-1 or rhVCAM-1, respectively. Receptor occupancy was calculated with the following equation: […]

Structure (SMILES): CC(C)C[C@@H]1NC(=O)c2ccc(-c3ccc(N4CCN(C(=O)c5ccccc5-c5ccccc5C(=O)N5CCN(c6ccc(-c7ccc8cc7CNC(=O)[C@@H]7CCCN7[C@H](C(=O)NC(C)(C)C)[C@H](C)NC(=O)[C@H]([C@@H](C)O)NC(=O)[C@H](CC(=O)O)NC(=O)[C@H](CC(C)C)NC8=O)cc6)CC5)CC4)cc3)c(c2)CNC(=O)[C@@H]2CCCN2[C@H](C(=O)NC(C)(C)C)[C@H](C)NC(=O)[C@H]([C@@H](C)O)NC(=O)[C@H](CC(=O)O)NC1=O [Example 1, 2,2′-((S,S,S,S,S,S,1^2,8S,11S,14S,17S,18S)-((([1,1′-Biphenyl]-2,2′-Dicarbonyl)-Bis(Piperazine-4,1-Diyl))Bis(4,1-Phenylene))Bis(18-(Tert-Butylcarbamoyl)-14-((R)-1-Hydroxyethyl)-8-Isobutyl-17-Methyl-2,6,9,12,15-Pentaoxo-3,7,10,13,16-Pentaaza-1(2,1)-Pyrrolidina-5(1,3)-Benzenacyclooctadecaphane-5^6,11-Diyl))-Diacetic Acid]
- IC50: ~87 nM
